Here are results for 54 compounds from patent US20070032529A1, “Pyrazole compounds and their use as antidiabetes agents” (Japan Tobacco Inc., priority 2005, published 2007).

The structures appear in SMILES notation. Where two headings read alike, the source gives them in different places. Some results are limits rather than exact numbers.

The assay addresses T1, recombinant human liver glycogen phosphorylase (Homo sapiens, UniProt P06737).
T1 construct: made in house; host or cells: Sf9 insect cells (crude homogenate, diluted, used as the enzyme solution)
T1 sequence (P06737 1-847): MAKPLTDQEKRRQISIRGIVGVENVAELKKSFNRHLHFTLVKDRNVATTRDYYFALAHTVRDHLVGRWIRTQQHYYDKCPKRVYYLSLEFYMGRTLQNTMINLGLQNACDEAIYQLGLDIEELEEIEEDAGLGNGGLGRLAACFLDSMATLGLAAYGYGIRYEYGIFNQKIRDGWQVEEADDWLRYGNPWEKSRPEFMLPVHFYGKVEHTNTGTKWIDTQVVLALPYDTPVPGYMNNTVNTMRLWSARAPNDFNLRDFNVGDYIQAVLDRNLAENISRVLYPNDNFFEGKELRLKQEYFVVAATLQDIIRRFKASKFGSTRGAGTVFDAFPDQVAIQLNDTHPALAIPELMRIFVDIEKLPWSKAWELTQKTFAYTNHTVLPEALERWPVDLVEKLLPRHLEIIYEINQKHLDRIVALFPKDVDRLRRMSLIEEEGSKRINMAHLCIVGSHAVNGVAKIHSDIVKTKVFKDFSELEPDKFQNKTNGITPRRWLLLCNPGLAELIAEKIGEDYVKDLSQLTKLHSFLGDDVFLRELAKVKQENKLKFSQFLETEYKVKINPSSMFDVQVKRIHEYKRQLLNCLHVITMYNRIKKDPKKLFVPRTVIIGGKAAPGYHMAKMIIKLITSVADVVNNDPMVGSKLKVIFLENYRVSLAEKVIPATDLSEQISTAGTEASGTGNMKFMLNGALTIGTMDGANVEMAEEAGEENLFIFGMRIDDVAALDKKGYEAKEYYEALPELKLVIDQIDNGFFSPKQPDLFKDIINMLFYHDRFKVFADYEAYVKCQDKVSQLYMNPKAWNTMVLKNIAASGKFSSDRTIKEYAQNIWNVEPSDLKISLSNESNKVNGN
In words: Measuring liver glycogen phosphorylase activity (forward reaction system, NADPH absorbance at 340 nm). It is filed as biochemical. The following applies: for inhibition at 1 µM: compound concentration 1000 nmol (in parentheses). Summed up:
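Sf9 homogenate expressing the enzyme, in pH 6.8 BES/EDTA, with glycogen and phosphate substrate plus glucose, coupled via phosphoglucomutase/G6PDH to NADPH formation. A340 change over 75 min at room temperature, blank-corrected; IC50 linearly interpolated between the two concentrations bracketing 50% inhibition versus 1% DMSO control.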

[1] abbreviates: enzyme inhibitory activity with respect to liver glycogen phosphorylase, class symbols.
The mark [2] stands for this setting: human liver glycogen phosphorylase, class symbol.
Setting [3] is: compound concentration 300 nmol (in parentheses), read-out: inhibition rate (%) at a certain concentration.
[4] abbreviates: read-out: inhibition rate (%) at a certain concentration.
Setting [5] is: compound concentration 100 nmol (in parentheses), read-out: inhibition rate (%) at a certain concentration.
Setting [6] is: figure in brackets (300), read-out: IC50 column: % value printed with (300).

A word on the IC50: it is the concentration needed to halve the response being measured. Regarding `O=C(NCc1ccc(-c2csnn2)cc1)c1cc(NC(=O)c2cc(F)c(F)cc2Cl)[nH]n1` [Example 1-142], the IC50 under setting [1] is less than 0.1 µM. Same read-out and setting: the value for `O=C(NCc1ccc(N2CCSCC2)nc1)c1cc(NC(=O)c2cc(F)c(F)cc2Cl)[nH]n1` [Example 1-153] was less than 0.1 µM; that for `CCOC(=O)CCCN(C(=O)c1cc(NC(=O)c2cc(F)c(F)cc2Cl)[nH]n1)c1ccccc1` [Example 4-26] was less than 0.1 µM.

With `CCN(C=Nc1ccccc1CNC(=O)c1cc(NC(=O)c2cc(F)c(F)cc2Cl)[nH]n1)CC` [Example 6-27], under setting [2], the IC50 was less than 0.1 µM. Same read-out and setting: the value for `N=C(Nc1ccc(CNC(=O)c2cc(NC(=O)c3cc(F)c(F)cc3Cl)[nH]n2)cc1)c1ccccc1F` [Example 6-35] was less than 0.1 µM. Consider `O=C(NCc1cc(Br)c(Br)s1)c1cc(NC(=O)c2cc(F)c(F)cc2Cl)[nH]n1` [Example 1-155], for which, under setting [1], the IC50 is less than 0.1 µM.

As for `O=C(NCc1ccccc1)c1cc(NC(=O)c2c(F)ccc(Cl)c2F)[nH]n1` [Example 4-21], the inhibition at 0.3 µM under setting [3] was determined as 24.2%. Turning to `COc1cc(CNC(=O)c2cc(NC(=O)c3cc(F)c(F)cc3Cl)[nH]n2)cc(OC)c1` [Example 1-16], the IC50 under setting [1] was less than 0.1 µM.

Consider `O=C(NCc1nccs1)c1cc(NC(=O)c2cc(F)c(F)cc2Cl)[nH]n1` [Example 1-51], for which the IC50 under setting [1] is less than 0.1 µM. Regarding `CCCCN(C(=O)c1cc(NC(=O)c2cc(F)c(F)cc2Cl)[nH]n1)C1CCN(C(C)=O)CC1` [Example 1-110], under setting [1], the IC50 is less than 0.1 µM. Take `COC(=O)[C@H](NC(=O)c1cc(NC(=O)c2cc(F)c(F)cc2Cl)[nH]n1)c1ccccc1` [Example 3-14]: under setting [4], the inhibition at 1 µM was determined as 41.7%. `CN(C)CCNC(=O)c1cc(NC(=O)c2cc(F)c(F)cc2Cl)[nH]n1` [Example 3-42]: the inhibition at 0.3 µM under setting [3] came to 1.1%. On the same count and under the same terms, the value for `CCCCN(C(=O)c1cc(NC(=O)c2cc(F)c(F)cc2Cl)[nH]n1)C1CCN(C(=O)C(=O)OCC)CC1` [Example 1-112] was 49.9%. With `Cc1cc(F)c(F)cc1C(=O)Nc1cc(C(=O)N(C)c2ccc(-c3nnn[nH]3)cc2)n[nH]1` [Example 7-2], the IC50 under setting [2] was less than 0.1 µM.

As to `CC(NC(=O)c1cc(NC(=O)c2cc(F)c(F)cc2Cl)[nH]n1)c1cccnc1` (stereo not drawn) [Example 2-26], under setting [5], the inhibition at 0.1 µM came to 36.4%. As to `Cc1cc(F)c(F)cc1C(=O)Nc1cc(C(=O)NCc2ccnc(C#N)c2)n[nH]1` [Example 7-15], under setting [2], the IC50 was less than 0.1 µM. For `O=C(NCc1cc(F)ccc1F)c1cc(NC(=O)c2cc(F)c(F)cc2Cl)[nH]n1` [Example 1-20], the IC50 under setting [1] is less than 0.1 µM. In the case of `C[C@H](NC(=O)c1cc(NC(=O)c2cc(F)c(F)cc2Cl)[nH]n1)c1ccccc1` [Example 2-21], the inhibition at 0.1 µM under setting [5] was 5.7%. For the compound `O=C(NCc1cccnc1OCC(F)(F)F)c1cc(NC(=O)c2cc(F)c(F)cc2Cl)[nH]n1` [Example 1-32], the IC50 under setting [1] was less than 0.1 µM. The same measure, in the same setting: in the case of `CCCCCCc1nc(C)oc1CNC(=O)c1cc(NC(=O)c2cc(F)c(F)cc2Cl)[nH]n1` [Example 1-167] it was less than 0.1 µM; in that of `COc1cscc1CNC(=O)c1cc(NC(=O)c2cc(F)c(F)cc2Cl)[nH]n1` [Example 1-164], less than 0.1 µM.

`CN(C)C(=O)c1ccc(N(C)C(=O)c2cc(NC(=O)c3cc(F)c(Cl)cc3Cl)[nH]n2)cc1` [Example 6-4]: the inhibition at 0.3 µM under setting [6] came to 46.8%.

For the compound `CCNC(=O)c1ccc(CNC(=O)c2cc(NC(=O)c3cc(F)c(F)cc3Cl)[nH]n2)cc1` [Example 1-120], the IC50 under setting [1] was less than 0.1 µM. As to `COCCN(C(=O)c1cc(NC(=O)c2cc(F)c(F)cc2Cl)[nH]n1)c1ccc(C(=O)OC)cc1` [Example 4-47], the inhibition at 0.1 µM under setting [5] amounted to 1.2%. Regarding `CC(C)(C)c1ccc(CNC(=O)c2cc(NC(=O)c3cc(F)c(F)cc3Cl)[nH]n2)cc1` [Example 1-30], under setting [1], the IC50 was less than 0.1 µM.

For `COCCN(CCOC)C(=O)c1cc(NC(=O)c2cc(F)c(F)cc2Cl)[nH]n1` [Example 1-94], the inhibition at 0.3 µM under setting [3] is 36.5%. For the compound `O=C(NCc1ccccc1)c1cc(NC(=O)c2ccc(F)cc2Cl)[nH]n1` [Example 4-6], under setting [1], the IC50 was 0.1 to 0.3 µM. For `CN(C(=O)c1cc(NC(=O)c2cc(F)c(F)cc2Cl)[nH]n1)c1ccc(C#N)cc1` [Example 6-7], the inhibition at 0.3 µM under setting [6] was 12.9%. Take `CN(C)C(=O)Nc1ccc(CNC(=O)c2cc(NC(=O)c3cc(F)c(F)cc3Cl)[nH]n2)cc1` [Example 6-37]: the IC50 under setting [2] was less than 0.1 µM. Regarding `O=C(Nc1cc(C(=O)N(CCO)c2ccccc2)n[nH]1)c1cc(F)c(F)cc1Cl` [Example 1-77], the inhibition at 1 µM under setting [4] was 43.8%. As to `CC(=O)OCCN(CCNC(=O)c1ccc(CNC(=O)c2cc(NC(=O)c3cc(F)c(F)cc3Cl)[nH]n2)cc1)CCOC(C)=O` [Example 1-47], under setting [1], the IC50 was less than 0.1 µM.

In the case of `CCC(CC)N(CCOC)C(=O)c1cc(NC(=O)c2cc(F)c(F)cc2Cl)[nH]n1` [Example 1-103], under setting [3], the inhibition at 0.3 µM came to 21.6%. `CCCN(C(=O)c1cc(NC(=O)c2cc(F)c(F)cc2Cl)[nH]n1)C1CCC(C(=O)OCC)CC1` (stereo not drawn) [Example 1-11]: the IC50 under setting [1] was 0.1 to 0.3 µM. With `O=C(Nc1cccc2ncccc12)c1cc(NC(=O)c2cc(F)c(F)cc2Cl)[nH]n1` [Example 1-145], the inhibition at 0.1 µM under setting [5] was 12.8%.

On to `CCN(C=Nc1cccc(CNC(=O)c2cc(NC(=O)c3cc(F)c(F)cc3Cl)[nH]n2)c1)CC` [Example 6-28], for which the IC50 under setting [2] was less than 0.1 µM. `CCCCN(C(=O)c1cc(NC(=O)c2cc(F)c(F)cc2Cl)[nH]n1)C1CC[S+]([O-])CC1` (stereo not drawn) [Example 1-115]: the inhibition at 0.3 µM under setting [3] came to 39.7%.

As to `O=C(NCc1csc(N2CCOCC2)n1)c1cc(NC(=O)c2cc(F)c(F)cc2Cl)[nH]n1` [Example 1-54], the IC50 under setting [1] is less than 0.1 µM.

With `CN1CCN(c2ccc(CNC(=O)c3cc(NC(=O)c4cc(F)c(F)cc4Cl)[nH]n3)cn2)CC1` [Example 5-39], under setting [1], the IC50 is less than 0.1 µM.

For `COc1cncc(OC)c1CNC(=O)c1cc(NC(=O)c2cc(F)c(F)cc2Cl)[nH]n1` [Example 3-51], the IC50 under setting [1] is less than 0.1 µM. As to `COc1ccccc1NC(=O)c1cc(NC(=O)c2cc(F)c(F)cc2Cl)[nH]n1` [Example 3-27], the inhibition at 0.3 µM under setting [3] was determined as 41.5%. As for `O=C(O)CCCN(C(=O)c1cc(NC(=O)c2cc(F)c(F)cc2Cl)[nH]n1)c1ccccc1` [Example 4-28], under setting [1], the half-inhibitory concentration (IC50) was 0.1 to 0.3 µM. The same measure, in the same setting: in the case of `O=C(O)CCN(Cc1ccccc1)C(=O)c1cc(NC(=O)c2cc(F)c(F)cc2Cl)[nH]n1` [Example 1-131] it was less than 0.1 µM; in that of `CN(C)CCNC(=O)c1ccc(CNC(=O)c2cc(NC(=O)c3cc(F)c(F)cc3Cl)[nH]n2)cc1` [Example 1-33], less than 0.1 µM. Regarding `CN(Cc1ccccc1)C(=O)c1cc(NC(=O)c2cc(F)c(F)cc2Cl)[nH]n1` [Example 3-1, 5-(2-chloro-4,5-difluoro-benzoylamino)-1H-pyrazole-3-carboxylic acid benzyl-methyl-amide], the inhibition at 0.49 µM (compound concentration 490 nmol (in parentheses), read-out: inhibition rate (%) at a certain concentration) was 50%. With `O=C(NC1CCCCC1)c1cc(NC(=O)c2cc(F)c(F)cc2Cl)[nH]n1` [Example 1-79], the inhibition at 0.3 µM under setting [3] is 23.3%. With `O=C(N[C@@H]1c2ccccc2C[C@@H]1O)c1cc(NC(=O)c2cc(F)c(F)cc2Cl)[nH]n1` [Example 2-30], the inhibition at 0.1 µM under setting [5] was found to be 1.8%. Consider `CCOC(=O)c1csc(N(CC)C(=O)c2cc(NC(=O)c3cc(F)c(F)cc3Cl)[nH]n2)n1` [Example 6-18], for which the inhibition at 0.1 µM (figure in brackets (100), read-out: IC50: % value given with (100)) came out at 6.8%. Turning to `Cc1nc(-c2ccccc2)oc1CNC(=O)c1cc(NC(=O)c2cc(F)c(F)cc2Cl)[nH]n1` [Example 1-165], the IC50 under setting [1] was less than 0.1 µM. Same read-out and setting: the value for `Cc1nc(CNC(=O)c2cc(NC(=O)c3cc(F)c(F)cc3Cl)[nH]n2)c(C)o1` [Example 1-162] was less than 0.1 µM. On to `O=C(Nc1cccc2cnccc12)c1cc(NC(=O)c2cc(F)c(F)cc2Cl)[nH]n1` [Example 1-147], for which, under setting [5], the inhibition at 0.1 µM worked out at 9.6%. For the compound `COc1ccc(CNC(=O)c2cc(NC(=O)c3cc(F)c(F)cc3Cl)[nH]n2)cc1OC` [Example 1-17], the IC50 under setting [1] was less than 0.1 µM.

Regarding `O=C(N[C@H]1c2ccccc2C[C@H]1O)c1cc(NC(=O)c2cc(F)c(F)cc2Cl)[nH]n1` [Example 2-31], the inhibition at 0.1 µM under setting [5] is 5.5%.

For `COC(=O)COc1ccccc1CNC(=O)c1cc(NC(=O)c2cc(F)c(F)cc2Cl)[nH]n1` [Example 3-47], under setting [1], the IC50 was less than 0.1 µM.

Consider `O=C(NCc1ccccc1)c1cc(NC(=O)c2ccc(F)cc2C(F)(F)F)[nH]n1` [Example 4-32], for which the inhibition at 0.3 µM under setting [3] was found to be 7.8%.
